{
  "source": "patent US20080300225A1",
  "about": "“PESTICIDAL FORMULATION CONTAINING OXYMATRINE OR MATRINE” (Marrone Organic Innovations, priority 2007, published 2008)",
  "system": "Armyworms (Spodoptera exigua)",
  "assay": "Contact study on armyworm first instar larvae",
  "type": "in vivo",
  "conditions": "for mode of insecticidal action: contact exposure of first instar larvae",
  "excerpt": "Contact Study of MOI 201 on Armyworms (Spodoptera exigua)\nObjective: Observe the mode of action and the symptoms caused by 0.6% oxymatrine on larvae of armyworms, as well as to quantify the time required for the larvae to become paralyzed or dead.\nMethod: Larvae of beet armyworm were taken as first In-star stage and placed on a microscope slide under a stereomicroscope. A drop of the test product was delivered over them and the larvae were left to soak for 30 seconds. Excess liquid was absorbed with a paper towel and the larvae were observed under the microscope. The products tested were Spinosad at 0.3%, Permethrin at 1%, and 0.6% oxymatrine at 800× and 1000× dilutions. Time 1 indicates the time it took before the larva was unable to perform normal activities like crawling, feeding, etc. Time 2 is the additional time needed for complete elimination/death.",
  "key": {"[1]": {"conditions": "Spinosad at 0.3%, Permethrin at 1%, 30 s soak, average of 5 reps"}, "[2]": {"conditions": "Spinosad at 0.3%, Permethrin at 1%, 30 s soak, reps 1-5"}},
  "note": "Values joined by “and” are separate entries in the source; they are usually repeats but may differ in a detail not shown here. Equal values may be shown once. Read-outs that look alike come from different tables or passages of the source.",
  "data": [
    {"compound": "Spinosad", "values": [
      {"measurement": "Time 1: time required for paralysis or convulsions, Average", "setting": "[1]", "value": 6.99, "unit": "min"},
      {"measurement": "Time 2: time between paralysis and death, Average", "setting": "[1]", "value": 289.00, "unit": "min"},
      {"measurement": "Time 1: time required for paralysis or convulsions, single replicate", "setting": "[2]", "value": "7.58 min and 8.46 min and 6.33 min and 6.4 min and 6.17 min"},
      {"measurement": "Time 2: time between paralysis and death, single replicate", "setting": "[2]", "value": "146 min and 180 min and 363 min and 373 min and 383 min"},
      {"measurement": "mode of insecticidal action", "value": "work as contact insecticides"},
      {"measurement": "period of time to affect the insect's basic functions", "setting": "text summary of Time 1, Spinosad 0.3%, Permethrin 1%, 0.6% oxymatrine at 800x and 1000x dilutions", "value": 7.0, "unit": "min"}
    ]},
    {"compound": "CC1(C)C(C=C(Cl)Cl)C1C(=O)OCc1cccc(Oc2ccccc2)c1", "note": "(centres unmarked) [Permethrin]", "values": [
      {"measurement": "Time 1: time required for paralysis or convulsions, Average", "value": 1.22, "unit": "min"},
      {"measurement": "period of time to affect the insect's basic functions", "value": 1.2, "unit": "min"},
      {"measurement": "Time 2: time between paralysis and death, Average", "setting": "[1]", "value": 333.60, "unit": "min"},
      {"measurement": "Time 2: time between paralysis and death, single replicate", "setting": "[2]", "value": "447 min and 428 min and 397 min and 97 min and 299 min"},
      {"measurement": "mode of insecticidal action", "value": "work as contact insecticides"}
    ]}
  ]
}
